# What was measured:
# Assay type in all cases: functional
# HOP-92 = assay: Cytotoxicity against human HOP92 cells assessed as cellular growth at 0.1 uM after 48 hrs by SRB assay relative to control
# [1] = Cytotoxicity against human EKVX cells assessed as cellular growth at 10 uM after 48 hrs by SRB assay relative to control
# UACC-257 = assay: Cytotoxicity against human UACC257 cells assessed as cellular growth at 1 uM after 48 hrs by SRB assay relative to control
# SNB-19 [2] = assay: Cytotoxicity against human SNB19 cells after 48 hrs by SRB assay; details: SNB-19, 48 h
# SNB-19 [3] = assay: Cytotoxicity against human SNB19 cells assessed as cellular growth at 100 uM after 48 hrs by SRB assay relative to control
# SF-539 = assay: Cytotoxicity against human SF539 cells assessed as cellular growth at 0.01 uM after 48 hrs by SRB assay relative to control
# SK-MEL-28 = assay: Cytotoxicity against human SK-MEL-28 cells after 48 hrs by SRB assay; details: SK-MEL-28, 48 h
# UACC-62 [4] = assay: Cytotoxicity against human UACC62 cells after 48 hrs by SRB assay; details: UACC-62, 48 h
# LOX IMVI = assay: Cytotoxicity against human LOXIMVI cells assessed as cellular growth at 0.01 uM after 48 hrs by SRB assay relative to control
# NCI-H322M = assay: Cytotoxicity against human NCI-H322M cells after 48 hrs by SRB assay
# HCT-116 = assay: Cytotoxicity against human HCT116 cells assessed as cellular growth at 1 uM after 48 hrs by SRB assay relative to control
# MDA-MB-435 = assay: Cytotoxicity against human MDA-MB-435 cells assessed as cellular growth at 0.01 uM after 48 hrs by SRB assay relative to control
# TK-10 = assay: Cytotoxicity against human TK10 cells assessed as cellular growth at 100 uM after 48 hrs by SRB assay relative to control
# SN12C = assay: Cytotoxicity against human SN12C cells assessed as cellular growth at 0.01 uM after 48 hrs by SRB assay relative to control
# UACC-62 [5] = assay: Cytotoxicity against human UACC62 cells assessed as cellular growth at 0.01 uM after 48 hrs by SRB assay relative to control
# NCI-H226 = assay: Cytotoxicity against human NCI-H226 cells assessed as cellular growth at 100 uM after 48 hrs by SRB assay relative to control
# MCF7 = assay: Cytotoxicity against human MCF7 cells assessed as cellular growth at 1 uM after 48 hrs by SRB assay relative to control
# Hs-578T = assay: Cytotoxicity against human Hs578T cells after 48 hrs by SRB assay
# HOP-62 = assay: Cytotoxicity against human HOP62 cells after 48 hrs by SRB assay; details: HOP-62, 48 h
# OVCAR-8 [6] = assay: Cytotoxicity against human OVCAR8 cells assessed as cellular growth at 100 uM after 48 hrs by SRB assay relative to control
# K562 [7] = assay: Cytotoxicity against human K562 cells assessed as cellular growth at 0.1 uM after 48 hrs by SRB assay relative to control
# SF-295 = assay: Cytotoxicity against human SF295 cells assessed as cellular growth at 100 uM after 48 hrs by SRB assay relative to control
# BT-549 [8] = assay: Cytotoxicity against human BT549 cells assessed as cellular growth at 0.01 uM after 48 hrs by SRB assay relative to control
# K562 [9] = assay: Cytotoxicity against human K562 cells after 48 hrs by SRB assay; details: K562, 48 h
# BT-549 [10] = assay: Cytotoxicity against human BT549 cells assessed as cellular growth at 0.1 uM after 48 hrs by SRB assay relative to control
# SK-OV-3 [11] = assay: Cytotoxicity against human SKOV3 cells after 48 hrs by SRB assay; details: SK-OV-3, 48 h
# OVCAR-3 = assay: Cytotoxicity against human OVCAR3 cells assessed as cellular growth at 1 uM after 48 hrs by SRB assay relative to control
# SK-OV-3 [12] = assay: Cytotoxicity against human SKOV3 cells assessed as cellular growth at 0.1 uM after 48 hrs by SRB assay relative to control
# T47D = assay: Cytotoxicity against human T47D cells assessed as cellular growth at 100 uM after 48 hrs by SRB assay relative to control
# OVCAR-8 [13] = assay: Cytotoxicity against human OVCAR8 cells assessed as cellular growth at 0.1 uM after 48 hrs by SRB assay relative to control
# HCT-15 = assay: Cytotoxicity against human HCT15 cells after 48 hrs by SRB assay; details: HCT-15, 48 h
# UO-31 = assay: Cytotoxicity against human UO31 cells assessed as cellular growth at 0.1 uM after 48 hrs by SRB assay relative to control
# SK-OV-3 [14] = assay: Cytotoxicity against human SKOV3 cells assessed as cellular growth at 10 uM after 48 hrs by SRB assay relative to control
# DU-145 = assay: Cytotoxicity against human DU145 cells assessed as cellular growth at 0.01 uM after 48 hrs by SRB assay relative to control
# [15] = read-out: LC50 (the source's name)
# [16] = read-out: pLC50 (the source's name) (converted)
compound,measurement,setting,value
O=C(CCCn1c2c(sc3ccccc32)c(=O)n2nnc(-c3ccccc3)c12)NCCc1c[nH]cn1,Activity,HOP-92,95%
same,Activity,[1],6%
same,Activity,UACC-257,109%
same,GI50,SNB-19 [2]; read-out: GI50,5.12 µM
same,CC50,SNB-19 [2]; [15],54.3 µM
same,TGI,SNB-19 [2]; read-out: TGI,22.1 µM
same,GI50,SNB-19 [2]; read-out: pGI50 (converted),5.13 µM
same,CC50,SNB-19 [2]; [16],53.7 µM
same,TGI,SNB-19 [2]; read-out: pTGI (converted),21.9 µM
same,Activity,SNB-19 [3],-84%
same,Activity,SF-539,73%
same,GI50,SK-MEL-28; read-out: GI50,1.69 µM
same,CC50,SK-MEL-28; [15],5.91 µM
same,TGI,SK-MEL-28; read-out: TGI,3.17 µM
same,GI50,SK-MEL-28; read-out: pGI50 (converted),1.7 µM
same,CC50,SK-MEL-28; [16],5.89 µM
same,TGI,SK-MEL-28; read-out: pTGI (converted),3.16 µM
same,GI50,UACC-62 [4]; read-out: GI50,1.81 µM
same,CC50,UACC-62 [4]; [15],7.01 µM
same,TGI,UACC-62 [4]; read-out: TGI,3.56 µM
same,GI50,UACC-62 [4]; read-out: pGI50 (converted),1.82 µM
same,CC50,UACC-62 [4]; [16],7.08 µM
same,TGI,UACC-62 [4]; read-out: pTGI (converted),3.55 µM
same,Activity,LOX IMVI,103%
same,GI50,NCI-H322M; read-out: GI50,2.75 µM
same,CC50,NCI-H322M; [15],39.2 µM
same,TGI,NCI-H322M; read-out: TGI,9.8 µM
same,GI50,NCI-H322M; read-out: pGI50 (converted),2.75 µM
same,CC50,NCI-H322M; [16],38.9 µM
same,TGI,NCI-H322M; read-out: pTGI (converted),9.77 µM
same,Activity,HCT-116,-27%
same,Activity,MDA-MB-435,117%
same,Activity,TK-10,-79%
same,Activity,SN12C,50%
same,Activity,UACC-62 [5],99%
same,Activity,NCI-H226,-72%
same,Activity,MCF7,58%
same,GI50,Hs-578T; read-out: GI50,1.47 µM
same,TGI,Hs-578T; read-out: TGI,3.82 µM
same,GI50,Hs-578T; read-out: pGI50 (converted),1.48 µM
same,TGI,Hs-578T; read-out: pTGI (converted),3.8 µM
same,GI50,HOP-62; read-out: GI50,1.31 µM
same,CC50,HOP-62; [15],6.32 µM
same,TGI,HOP-62; read-out: TGI,2.87 µM
same,GI50,HOP-62; read-out: pGI50 (converted),1.32 µM
same,CC50,HOP-62; [16],6.31 µM
same,TGI,HOP-62; read-out: pTGI (converted),2.88 µM
same,Activity,OVCAR-8 [6],-40%
same,Activity,K562 [7],23%
same,Activity,SF-295,-65%
same,Activity,BT-549 [8],100%
same,GI50,K562 [9]; read-out: GI50,0.0227 µM
same,CC50,K562 [9]; [15],5.18 µM
same,TGI,K562 [9]; read-out: TGI,1.02 µM
same,GI50,K562 [9]; read-out: pGI50 (converted),0.0229 µM
same,CC50,K562 [9]; [16],5.13 µM
same,TGI,K562 [9]; read-out: pTGI (converted),1.02 µM
same,Activity,BT-549 [10],90%
same,GI50,SK-OV-3 [11]; read-out: GI50,2.39 µM
same,CC50,SK-OV-3 [11]; [15],29.2 µM
same,TGI,SK-OV-3 [11]; read-out: TGI,8.5 µM
same,GI50,SK-OV-3 [11]; read-out: pGI50 (converted),2.4 µM
same,CC50,SK-OV-3 [11]; [16],29.5 µM
same,TGI,SK-OV-3 [11]; read-out: pTGI (converted),8.51 µM
same,Activity,OVCAR-3,92%
same,Activity,SK-OV-3 [12],99%
same,Activity,T47D,-88%
same,Activity,OVCAR-8 [13],33%
same,GI50,HCT-15; read-out: GI50,0.372 µM
same,CC50,HCT-15; [15],5.74 µM
same,TGI,HCT-15; read-out: TGI,1.9 µM
same,GI50,HCT-15; read-out: pGI50 (converted),0.372 µM
same,CC50,HCT-15; [16],5.75 µM
same,TGI,HCT-15; read-out: pTGI (converted),1.91 µM
same,Activity,UO-31,106%
same,Activity,SK-OV-3 [14],-6%
same,Activity,DU-145,105%
